The experiment deals with T1, PfHsp70-1 (Plasmodium falciparum, UniProt P11144).
T1 construct: recombinant PfHsp70-1 (pQE30/PfHsp70-1)
Put plainly: SPR, PfHsp70-1 immobilized on CMD 3-D gold chip by amine coupling. The format is binding. From the text: SPR, PfHsp70-1 immobilized on CMD 3-D gold chip by amine coupling on PfHsp70-1 | PfHsp70 binds to either of the two compounds within the micromolar range of affinity

This is an account of results in PMC10949600, “Iso-mukaadial acetate and ursolic acid acetate bind to Plasmodium Falciparum heat shock protein 70: towards targeting parasite protein folding pathway” (BMC Chemistry, 2024).

Like-named read-outs stand apart in the source and are kept apart here.

T1 sequence (P11144 whole entry): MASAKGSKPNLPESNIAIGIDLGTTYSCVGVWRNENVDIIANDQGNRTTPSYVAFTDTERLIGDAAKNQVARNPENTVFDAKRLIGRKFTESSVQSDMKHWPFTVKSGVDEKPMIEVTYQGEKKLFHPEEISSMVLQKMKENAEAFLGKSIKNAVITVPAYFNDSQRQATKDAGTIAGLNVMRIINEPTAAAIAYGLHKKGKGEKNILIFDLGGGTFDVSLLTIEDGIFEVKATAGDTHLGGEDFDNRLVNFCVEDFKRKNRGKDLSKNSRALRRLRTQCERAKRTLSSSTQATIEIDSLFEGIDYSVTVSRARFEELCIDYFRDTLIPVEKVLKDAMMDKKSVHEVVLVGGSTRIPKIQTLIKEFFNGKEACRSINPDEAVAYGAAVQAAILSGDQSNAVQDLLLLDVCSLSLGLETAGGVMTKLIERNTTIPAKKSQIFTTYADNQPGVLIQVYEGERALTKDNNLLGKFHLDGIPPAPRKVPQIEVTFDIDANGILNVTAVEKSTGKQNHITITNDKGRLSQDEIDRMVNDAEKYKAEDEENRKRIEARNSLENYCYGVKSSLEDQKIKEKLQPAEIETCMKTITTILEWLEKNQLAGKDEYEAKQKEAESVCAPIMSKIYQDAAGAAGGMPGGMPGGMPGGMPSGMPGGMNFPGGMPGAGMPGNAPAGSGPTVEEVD

Broadly, the Kd is the constant that tells how readily two partners part at equilibrium. As for `CC(=O)O[C@H]1CC[C@]2(C)[C@H]3CC=C4[C@@H]5[C@@H](C)[C@H](C)CC[C@]5(C(=O)O)CC[C@@]4(C)[C@]3(C)CC[C@H]2C1(C)C` [UAA, ursolic acid acetate], binding was characterised by a dissociation constant (Kd) of 4.03 µM. In the case of iso-mukaadial acetate [IMA], the Kd (read-out: KD) stood at 9.89 µM.
